Results from patent publication US10143730B2, “Peptides and combination of peptides for use in immunotherapy against various cancers” (immatics biotechnologies GmbH, priority 2015, dated 2018).

What was measured:
[1] = tested on: CD8+ T cells of healthy HLA-A*02+ donors; assay: In vitro T-cell priming with aAPCs loaded with HLA-A*02/peptide complexes and anti-CD28, multimer staining; type: cell-based, human; details: HLA-A*02 peptides (SEQ ID 1-157, 229-266); peptide-specific multimer+ CD8+ T cells after aAPC priming
Description: FIGS. 4A to 4D show exemplary results of peptide-specific in vitro CD8+ T cell responses of a healthy HLA-A*02+ donor. CD8+ T cells were primed using artificial APCs coated with anti-CD28 mAb and HLA-A*02 in complex with Seq ID No 27 peptide (FIG. 4A, left panel), Seq ID No 229 peptide (FIG. 4B, left panel), Seq ID No 230 peptide (FIG. 4C, left panel) and Seq ID No 235 peptide (FIG. 4D, left panel), respectively. After three cycles of stimulation, the detection of peptide-reactive cells was performed by 2D multimer staining with A*02/Seq ID No 27 (FIG. 4A), A*02/Seq ID No 229 (FIG. 4B), A*02/Seq ID No 230 (FIG. 4C) or A*02/Seq ID No 235 (FIG. 4D). Right panels (FIGS. 4A, 4B, 4C and 4D) show control staining of cells stimulated with irrelevant A*02/peptide complexes. Viable singlet cells were gated for CD8+ lymphocytes. Boolean gates helped excluding false-positive events detected with multimers specific for different peptides. Frequencies of specific multimer+ cells among CD8+ lymphocytes are indicated.
In order to obtain information regarding the immunogenicity of the TUMAPs of the present invention, the inventors performed investigations using an in vitro T-cell priming assay based on repeated stimulations of CD8+ T cells with artificial antigen presenting cells (aAPCs) loaded with peptide/MHC complexes and anti-CD28 antibody.
In order to perform in vitro stimulations by artificial antigen presenting cells loaded with peptide-MHC complex (pMHC) and anti-CD28 antibody, the inventors first isolated CD8+ T cells from fresh HLA-A*02 leukapheresis products via positive selection using CD8 microbeads (Miltenyi Biotec, Bergisch-Gladbach, Germany) of healthy donors obtained from the University clinics Mannheim, Germany, after informed consent.
PBMCs and isolated CD8+ lymphocytes were incubated in T-cell medium (TCM) until use consisting of RPMI-Glutamax (Invitrogen, Karlsruhe, Germany) supplemented with 10% heat inactivated human AB serum (PAN-Biotech, Aidenbach, Germany), 100 U/ml Penicillin/100 μg/ml Streptomycin (Cambrex, Cologne, Germany), 1 mM sodium pyruvate (CC Pro, Oberdorla, Germany), 20 μg/ml Gentamycin (Cambrex). 2.5 ng/ml IL7 (PromoCell, Heidelberg, Germany) and 10 U/ml IL-2 (Novartis Pharma, Nürnberg, Germany) were also added to the TCM at this step.
Generation of pMHC/anti-CD28 coated beads, T-cell stimulations and readout was performed in a highly defined in vitro system using four different pMHC molecules per stimulation condition and 8 different pMHC molecules per readout condition.
The purified co-stimulatory mouse IgG2a anti human CD28 Ab 9.3 (Jung et al., 1987) was chemically biotinylated using Sulfo-N-hydroxysuccinimidobiotin as recommended by the manufacturer (Perbio, Bonn, Germany). Beads used were 5.6 μm diameter streptavidin coated polystyrene particles (Bangs Laboratories, Illinois, USA).
pMHC used for positive and negative control stimulations were A*0201/MLA-001 (peptide […] (SEQ ID NO. 303) from modified Melan-A/MART-1) and A*0201/DDX5-001 ([…] from DDX5, SEQ ID NO. 304), respectively.
800.000 beads/200 μl were coated in 96-well plates in the presence of 4×12.5 ng different biotin-pMHC, washed and 600 ng biotin anti-CD28 were added subsequently in a volume of 200 μl. Stimulations were initiated in 96-well plates by co-incubating […] CD8+ T cells with 2×10^5 washed coated beads in 200 μl TCM supplemented with 5 ng/ml IL-12 (PromoCell) for 3 days at 37° C. Half of the medium was then exchanged by fresh TCM supplemented with 80 U/ml IL-2 and incubating was continued for 4 days at 37° C. This stimulation cycle was performed for a total of three times. For the pMHC multimer readout using 8 different pMHC molecules per condition, a two-dimensional combinatorial coding approach was used as previously described (Andersen et al., 2012) with minor modifications encompassing coupling to 5 different fluorochromes. […]

HLA-A*02 = molecular target: T1, HLA-A*02 (Homo sapiens, UniProt P04439, D140Y/D185E/D98H/E176V/E277Q/G131W/G231S/I119V/I121R/I166T/I218V/L300P/N151K/N90K/P208A/P217A/Q86G/Q94H/R138H/R169H); assay: MHC binding assay, UV-ligand exchange with beta2m ELISA (peptide exchange yield); details: binding to HLA-A*02
T1 construct: made in house
How it was run: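 pMHC complexes formed by UV-induced cleavage of a photolabile peptide and exchange with candidate peptide; exchange yield measured by streptavidin-capture ELISA detecting β2m with HRP anti-β2m, TMB, A450. Exchange samples diluted 100-fold; refolded HLA-A*02:01/MLA-001 monomers (15-500 ng/ml) as standards; incubations 1 h, 37 °C.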

Row | Substance | Wells positive [%] (in vitro immunogenicity) [1] | Peptide exchange (MHC class I binding score, peptide exchange yield) (HLA-A*02)
1 | 6 (ALFDSLRHV; listed as Homo sapiens) [compound 6] | ++ (20%-49% = ++) | +++ (50%-75% = +++)
2 | 7 (ILDHEVPSL; listed as Homo sapiens) [compound 7] | ++ (20%-49% = ++) | +++ (50%-75% = +++)
3 | 11 (ALSPSYLTV; listed as Homo sapiens) [compound 11] | ++ (20%-49% = ++) | +++ (50%-75% = +++)
4 | 12 (GLLPLLHRA; listed as Homo sapiens) [compound 12] | ++++ (> = 70% = ++++) | ++++ (> = 75% = ++++)
5 | 14 (ILAKDLFEI; listed as Homo sapiens) [compound 14] | ++ (20%-49% = ++) | ++++ (> = 75% = ++++)
6 | 18 (ILLDLTDNRL; listed as Homo sapiens) [compound 18] | + (<20% = +) | +++ (50%-75% = +++)
7 | 20 (GLSQITNQL; listed as Homo sapiens) [compound 20] | ++ (20%-49% = ++) | +++ (50%-75% = +++)
8 | 23 (SLFSDEFKV; listed as Homo sapiens) [compound 23] | ++++ (> = 70% = ++++) | +++ (50%-75% = +++)
9 | 26 (ALQEELTEL; listed as Homo sapiens) [compound 26] | + (<20% = +) | +++ (50%-75% = +++)
10 | 27 (RLMEENWNA; listed as Homo sapiens) [compound 27] | +++ (50%-69% = +++) | +++ (50%-75% = +++)
11 | 29 (YLLDPSITL; listed as Homo sapiens) [compound 29] | + (<20% = +) | +++ (50%-75% = +++)
12 | 31 (TITETTVEV; listed as Homo sapiens) [compound 31] | + (<20% = +) | +++ (50%-75% = +++)
13 | 35 (FLLPFSTVYL; listed as Homo sapiens) [compound 35] | + (<20% = +) | +++ (50%-75% = +++)
14 | 90 (FLQDLEQRL; listed as Homo sapiens) [compound 90] | + (<20% = +) | +++ (50%-75% = +++)
15 | 92 (GLLFSLRSV; listed as Homo sapiens) [compound 92] | ++ (20%-49% = ++) | ++++ (> = 75% = ++++)
16 | 96 (LLVSHLYLV; listed as Homo sapiens) [compound 96] | ++ (20%-49% = ++) | ++ (20%-49% = ++)

Row | Substance | Wells positive [%] (in vitro immunogenicity) [1] | Peptide exchange (MHC class I binding score, peptide exchange yield) (HLA-A*02)
17 | 138 (ALLAKILQI; listed as Homo sapiens) [compound 138] | ++ (20%-49% = ++) | +++ (50%-75% = +++)
18 | 141 (FLDKVLVAA; listed as Homo sapiens) [compound 141] | + (<20% = +) | +++ (50%-75% = +++)
19 | 144 (ALLAFFPGL; listed as Homo sapiens) [compound 144] | +++ (50%-69% = +++) | +++ (50%-75% = +++)
20 | 149 (ILNTHITEL; listed as Homo sapiens) [compound 149] | + (<20% = +) | +++ (50%-75% = +++)
21 | 150 (VLYDRPLKI; listed as Homo sapiens) [compound 150] | ++ (20%-49% = ++) | +++ (50%-75% = +++)
22 | 151 (SVLDSTAKV; listed as Homo sapiens) [compound 151] | ++ (20%-49% = ++) | ++ (20%-49% = ++)
23 | 229 (AILAHLNTV; listed as Homo sapiens) [compound 229] | ++ (20%-49% = ++) | ++++ (> = 75% = ++++)
24 | 230 (KLQNIMMLL; listed as Homo sapiens) [compound 230] | ++++ (> = 70% = ++++) | ++ (20%-49% = ++)
25 | 232 (KIFPAALQLV; listed as Homo sapiens) [compound 232] | ++ (20%-49% = ++) | +++ (50%-75% = +++)
26 | 233 (HLFDAFVSV; listed as Homo sapiens) [compound 233] | ++ (20%-49% = ++) | +++ (50%-75% = +++)
27 | 235 (KIIDFLSAL; listed as Homo sapiens) [compound 235] | +++ (50%-69% = +++) | +++ (50%-75% = +++)
28 | 247 (ALYEGYATV; listed as Homo sapiens) [compound 247] | ++ (20%-49% = ++) | +++ (50%-75% = +++)
29 | 248 (YLDRFLAGV; listed as Homo sapiens) [compound 248] | ++ (20%-49% = ++) | ++++ (> = 75% = ++++)
30 | 249 (GLCERLVSL; listed as Homo sapiens) [compound 249] | + (<20% = +) | ++++ (> = 75% = ++++)
31 | 251 (ALSVLRLAL; listed as Homo sapiens) [compound 251] | ++ (20%-49% = ++) | +++ (50%-75% = +++)
